Measurements from patent US4939142A, “Substituted styrene derivatives” (priority 1989, dated 1990).

How the values were obtained:
maximal electroshock = assay: Inhibition of maximal electroshock on mice; details: for ED50: Mus musculus, po; for Therapeutical index: Table VI, maximal electroshock, LD50/ED50
Protocol: The test is carried out on white mice weighing 20-25 g. The animals receive an electric shock through corneal electrodes (50 Hz; 45 mA, 0.4 sec.). A total inhibition of the tonus extensor spasms of the posterior extremities is regarded as the criterium of anticonvulsive effect. The test compound and the carrier, respectively, are administered orally an hour before the electric shock.

hexobarbital narcosis = assay: Hexobarbital narcosis potentiating effect; details: for ED50: Mus musculus, po; for Therapeutical index LD50 /ED50: Table I, hexobarbital narcosis
Protocol: The test is carried out on white mice. Groups consisting of six mice are used for each dose and test compound. The test compound is administered orally and an hour after this treatment narcosis is induced by means of a 40 mg/kg i.v. dose of hexobarbital. The control group receives carrier instead of the test compound.
Those mice are considered to be having a positive reaction which show a narcosis time at least 2.5 times longer than that of the control group. The ED50 values thus transformed are calculated.

in vivo = details: mouse, in vivo, po
Protocol: (§1) Male and female white mice (CFLP strain, 18-22 g) are used, 10 animals per dose. The test compounds are administered orally in a volume of 20 ml/kg. After administration the mice are observed for a period of 7 days. The animals are kept in plastic boxes, on wood litter, at room temperature. The animals receive standard mouse fodder and tap water ad libitum.

motility = assay: animal or person; assay type: in vivo; details: for ED50: Mus musculus, po; for Therapeutical index: Table II, motility inhibition, LD50/ED50
Protocol: The test is accomplished according to the method of Borsy et al. in a 10-channel Dews system equipment, whereby 3 mice are used per channel. The test compound or the carrier, respectively, is administered orally, and one hour after the said treatment the animals are placed into the apparatus and the number of the interruptions of infrared radiation is registered for 30 minutes.
The results are summarized in Table II and documented by means of suitable statistics for each experiment.
[J. Borsy, E. Csanyi, I. Lazar: Arch. Int. Pharmacodyn. 124, 1 (1960)].

pentetrazole spasm = assay: Inhibition of pentetrazol spasm on mice; details: for ED50: Mus musculus, po; for Therapeutical index: Table V, pentetrazole spasm, LD50/ED50
Protocol: The modified method of Benziger and Hane is used on white mice. Groups consisting of 6 animals are used for each dose. […] The test compounds are administered orally one hour before the treatment with pentetrazole; in the control group the animals obtain the carrier orally at the same points of time.
The therapeutical index data disclosed in the above Tables are calculated by means of the following equation: [formula]

[1] = system: nicotine spasm and lethality; assay: Inhibition of nicotine spasm and lethality on mice (Stone); assay type: in vivo; details: Table VIII; for ED50: Mus musculus, oral, 1 h before nicotine 1.4 mg/kg i.v.; for Therapeutical index: nicotine spasm and lethality, LD50/ED50
Source text: [Stone, C. C., Mecklenburg, K. L., Torchiana, M. L.: Arch. Int.

tetrabenazine ptosis = assay: Tetrabenazin ptosis antagonism (Hoffmeister et al.); assay type: in vivo; details: Table III; for ED50: Mus musculus, oral, 30 min before tetrabenazin 50 mg/kg i.p.; for Therapeutical index: tetrabenazin ptosis, LD50/ED50
Protocol: The test is carried out by the method of Hoffmeister et al. adapted to mice. Groups consisting of 10-20 animals are treated orally with each dose of the test compound. The control group is treated orally with the carrier. Thirty minutes later a 50 mg/kg i.p. tetrabenazine dose is administered, whereupon after 30, 60, 90 and 120 minutes the animals with closed eye-lids are counted in each group.
On the basis of all measurements an average ptosis is calculated for each group and expressed as the percentile deviation (inhibition) from the control group. On the basis of the data thus obtained ED50 values are calculated.
[Hoffmeister, F., Wuttke, W., and Kroneberg, G.: Arzneim. Forsch. (Drug.

yohimbin toxicity = assay: animal or person
Protocol: The test is carried out according to the method of Quinton. Groups consisting of 10 mice are used for each dose. The animal groups are treated with the suitable doses of the test compounds while the control group is treated with a carrier. An hour after the treatment a sublethal dose of yohimbin is administered intraperitoneally in a volume of 20 ml/kg. The perished animals are counted after 1 and 24 hours.

acetic acid writhing = assay: Acetic acid "writhing test" on mice (Newbould); assay type: in vivo, white mice; details: Table VII; for ED50: Mus musculus, oral, 1 h before acetic acid i.p., read-out: ED50; for Therapeutical index: acetic acid writhing, LD50/ED50
Protocol: In the period between the 5th and 10th minutes following the administration of acetic acid the number of the characteristic "writhing" responses is counted for each animal and the "total writhing number" (within 5 minutes) is expressed as the percentage of the value obtained for the control animals. The mice are treated with the test compound and the carrier, respectively, orally 1 hour before the administration of acetic acid. 12 animals are used per dose.
[Newbould, B. D.: Brit.

[2] = system: experimental coronary insufficiency induced by vasopressine; assay: Antianginal effect on rats, vasopressine-induced coronary insufficiency, T-wave (Nieschultz); assay type: in vivo, male rats; details: Table IX, dose 2 mg/kg, vasopressine 1 IU/kg i.v.
Protocol: The test is carried out on male rats weighing 180-220 g. The animals are narcotized with the aid of chloralose urethane (70-700 mg/kg i.p.). ECG is registered by means of needle electrodes in standard II output. Antianginal effect is tested according to the method of Nieschultz. Experimental coronary insufficiency is induced by administering vasopressine (1 IU/kg i.v.) on 10-12 animals for each dose. The magnitude of the T-wave before and after the administration of vasopressine is measured in the treated and control groups.

ulcus secretion = assay: animal or person; assay type: in vivo; details: for ED50: Rattus norvegicus, po, 5 h; for Therapeutical index: Table X, ulcus secretion, LD50/ED50
Protocol: The test is carried out according to the method of Nakamura on rats (Wistar strain) weighing 150-230 g and fasted for 48 hours. Each animal group consists of 4 male and 4 female rats. On the day of the experiment the pylorus of the animals is bound and the corresponding dose of the test compound is administered orally immidiately after operation. The animals are killed with ether 5 hours after the operation, their stomach is removed, cut along the large curve and placed on plastic plates.

mice = assay: in vivo; details: 10080 min
Protocol: as §1

SMILES: CC(CO/N=C1C=C(/C=C/c2ccccc2)CC(C)(C)C/1)CN(C)C (racemic) [Example 13, D,L-5,5-Dimethyl-3-(E)-phenyl-vinyl-1-(E)-(3'-dimethylamino-2'-methyl-propoxyimino)-2-cyclohexene]
- ED50 (maximal electroshock): 64 mg/kg
- Therapeutical index (maximal electroshock): 28.1
- ED50 (hexobarbital narcosis): 9 mg/kg
- Therapeutical index LD50 /ED50 (hexobarbital narcosis): 200.0
- LD50 at 168 h (in vivo): 1800 mg/kg
- ED50 (motility): 100 mg/kg
- Therapeutical index (motility): 18.0

SMILES: CC(CO/N=C1C=C(/C=C/c2ccc(Cl)cc2)CC(C)(C)C/1)CN(C)C (racemic) [Example 18, D,L-5,5-Dimethyl-3-(E)-[(4'-chloro-phenyl)-vinyl]-1-(E)-(3"-dimethylamino-2"-methyl-propoxyimino)-2-cyclohexene]
- ED50 (pentetrazole spasm): 190 mg/kg
- Therapeutical index (pentetrazole spasm): 10.5
- ED50 [1]: 88 mg/kg
- Therapeutical index [1]: 22.7
- LD50 at 168 h (in vivo): 2000 mg/kg
- ED50 (tetrabenazine ptosis): 40 mg/kg
- Therapeutical index (tetrabenazine ptosis): 50.0

SMILES: CN(C)CCC=C1c2ccccc2CCc2ccccc21 [Amitriptylin, reference compound]
- ED50 (yohimbin toxicity; Mus musculus): 12.5 mg/kg
- Therapeutical index (yohimbin toxicity; Table IV, yohimbin toxicity, LD50/ED50): 18
- ED50 (tetrabenazine ptosis): 12 mg/kg

SMILES: CN(C)CCCO/N=C1C=C(/C=C/c2ccccc2)CC(C)(C)C/1 [Example 1, 5,5-Dimethyl-3-(E)-phenyl-vinyl-1-(E)-(3'-dimethylamino-propoxyimino)-2-cyclohexene]
- ED50 (maximal electroshock): 110 mg/kg
- Therapeutical index (maximal electroshock): 11.8
- ED50 (pentetrazole spasm): 56 mg/kg
- Therapeutical index (pentetrazole spasm): 23.2
- ED50 [1]: 12 mg/kg
- Therapeutical index [1]: 108.0
- LD50 at 168 h (in vivo): 1300 mg/kg
- ED50 (acetic acid writhing): 160 mg/kg
- Therapeutical index (acetic acid writhing): 8.1
- ED50 (motility): 60 mg/kg
- Therapeutical index (motility): 22.0

SMILES: CN(C)CCO/N=C1C=C(/C=C/c2ccccc2)CC(C)(C)C/1 [Example 3, 5,5-Dimethyl-3-(E)-phenyl-vinyl-1-(E)-(2'-dimethylamino-ethoxyimino)-2-cyclohexene]
- ED50 (maximal electroshock): 88 mg/kg
- Therapeutical index (maximal electroshock): 11.4
- ED50 (pentetrazole spasm): 68 mg/kg
- Therapeutical index (pentetrazole spasm): 14.7
- ED50 [1]: 33 mg/kg
- Therapeutical index [1]: 30.3
- LD50 at 168 h (in vivo): 1000 mg/kg
- ED50 (motility): 58 mg/kg
- Therapeutical index (motility): 17.0

SMILES: CC1(C)CC(/C=C/c2ccc(Cl)cc2)=CC(=N/OCCCN2CCN(Cc3ccccc3)CC2)/C1 [Example 20, 5,5-Dimethyl-3-(E)-[(4'-chloro-phenyl)-vinyl]-1-(E)-(4"-phenyl-methyl-1"-piperazinyl-propoxyimino)-2-cyclohexene]
- Inhibition % [2]: -54.4%
- LD50 at 168 h (in vivo): 2000 mg/kg
- ED50 (tetrabenazine ptosis): 8.5 mg/kg
- Therapeutical index (tetrabenazine ptosis): 235.3

SMILES: CC1(C)CC(/C=C/c2ccccc2Cl)=CC(=N/OCCN2CCCCC2)/C1 [Example 26, 5,5-Dimethyl-3-(E)-[(2'-chloro-phenyl)-vinyl]-1-(E)-(N-piperdinyl-ethoxyimino)-2-cyclohexene]
- ED50 (ulcus secretion): ~50 mg/kg
- Therapeutical index (ulcus secretion): above 20
- LD50 at 168 h (in vivo): > 1000 mg/kg
- LD50 (mice; Table II, oral, mice): > 1000 mg/kg
- ED50 (motility): ~200 mg/kg
- Therapeutical index (motility): > 5.0

SMILES: CC1(C)CC(/C=C/c2cccc(Cl)c2)=CC(=N/OCCN2CCOCC2)/C1 [Example 28, 5,5-Dimethyl-3-(E)-[(3'-chloro-phenyl)-vinyl]-1-(E)-(N-morpholino-ethoxyimino)-2-cyclohexene]
- Inhibition % [2]: -31%

SMILES: COc1cccc(/C=C/C2=CC(=N/OCCN3CCOCC3)/CC(C)(C)C2)c1 [Example 29, 5,5-Dimethyl-3-(E)-[(3'-methoxy-phenyl)-vinyl]-1-(E)-(N-morpholino-ethoxyimino)-2-cyclohexene]
- ED50 (ulcus secretion): ~200 mg/kg
- Therapeutical index (ulcus secretion): above 10.0
- ED50 (hexobarbital narcosis): 21.5 mg/kg
- Therapeutical index LD50 /ED50 (hexobarbital narcosis): > 93.0
- LD50 at 168 h (in vivo): > 2000 mg/kg
- LD50 (mice; Table I, oral, mice): > 2000 mg/kg
- LD50 (mice; Table II, oral, mice): > 2000 mg/kg
- LD50 (mice; Table X): above 2000 mg/kg
- ED50 (acetic acid writhing): ~160 mg/kg
- Therapeutical index (acetic acid writhing): > 12.5
- ED50 (motility): ~200 mg/kg
- Therapeutical index (motility): > 10.0

SMILES: COc1cccc(/C=C/C2=CC(=N/OCCCN3CCOCC3)/CC(C)(C)C2)c1 [Example 30, 5,5-Dimethyl-3-(E)-[(3'-methoxy-phenyl)-vinyl]-1-(E)-(N-morpholino-propoxyimino)-2-cyclohexene]
- ED50 (ulcus secretion): ~150 mg/kg
- Therapeutical index (ulcus secretion): above 13.3
- Inhibition % [2]: -45%
- ED50 (hexobarbital narcosis): 21.5 mg/kg
- Therapeutical index LD50 /ED50 (hexobarbital narcosis): > 93.0
- LD50 at 168 h (in vivo): > 2000 mg/kg
- LD50 (mice; Table I, oral, mice): > 2000 mg/kg
- LD50 (mice; Table II, oral, mice): > 2000 mg/kg
- ED50 (motility): ~200 mg/kg
- Therapeutical index (motility): > 10.0

SMILES: COc1ccccc1/C=C/C1=CC(=N/OCCN2CCCCC2)/CC(C)(C)C1 [Example 33, 5,5-Dimethyl-3-(E)-[(2'-methoxy-phenyl)-vinyl]-1-(E)-(N-piperidinyl-ethoxyimino)-cyclohexene]
- ED50 (pentetrazole spasm): 63 mg/kg
- Therapeutical index (pentetrazole spasm): > 15.9
- Inhibition % [2]: -47.1%
- LD50 at 168 h (in vivo): > 1000 mg/kg

SMILES: CC1(C)CC(/C=C/c2cccc(Cl)c2)=CC(=N/OCCCN2CCOCC2)/C1 [Example 34, 5,5-Dimethyl-3-(E)-[(3'-chloro-phenyl)-vinyl]-1-(E)-(N-morpholino-propoxyimino)-2-cyclohexene]
- ED50 (ulcus secretion): ~100 mg/kg
- Therapeutical index (ulcus secretion): above 20.0
- ED50 (pentetrazole spasm): 180 mg/kg
- Therapeutical index (pentetrazole spasm): > 11.0
- LD50 at 168 h (in vivo): > 2000 mg/kg
- LD50 (mice; Table VII, oral, mice): > 2000 mg/kg
- LD50 (mice; Table X): above 2000 mg/kg
- ED50 (acetic acid writhing): ~200 mg/kg
- Therapeutical index (acetic acid writhing): > 10.0
